According to US9795548B2, “Oral care compositions” (Colgate-Palmolive Company, priority 2012, dated 2017):
Converted amounts (≈) assume the structure as drawn.

What was measured:
Assay type in all cases: cell-based
[1] = tested on: PGE2; assay: Mat Tek PGE2 tissue model, anti-inflammatory activity; conditions: dentifrice slurry 1:4 in PBS, base dentifrice with 1% active; 2 minutes treatment; IL-β about 10 ng/ml
Experimental: Anti-inflammatory activity of IPM is evaluated using the Mat Tek PGE2 tissue model.
One (1) mL of tissue culture media (supplied by MatTek) is added to each well of a 6-well plate (×4). The plate is incubated overnight (37° C., 5% CO2). Treatment solutions comprising the dentifrice slurries are prepared, wherein the base dentifrice contains 1% isopropyl magnolol. Slurries of the dentifrices are prepared in a 1:4 ratio by weight of dentifrice:phosphate buffered saline (PBS). Slurries are placed on a stir plate for a minimum of 30 minutes to allow the solution to fully homogenize.
The tissue media is prepared by adding IL-β from a frozen stock solution to the tissue culture media. The final concentration of IL-β in the media is about 10 ng/ml.
1 ml of tissue culture media containing IL-β is added to each well of a 6-well plate (×4). […] of treatment solution is then added to the surface of the tissue and let sit for 2 minutes. The treatment solution is removed by aspiration.
The tissue is then washed using about 200 μl of PBS. PBS is then removed by aspiration, and the process is repeated for a total of 3 washes.
Tissue is then transferred the original 6-well plates to new 6-well plates with media containing IL-β. The plates are incubated (37° C., 5% CO2) for between 7 and 24 hours, depending on the active or dentifrice being tested.
The used media from the old 6-well plates is pipetted into a single 24-well plate, for use as a baseline sample. The plates are removed from the incubator and the used media is pipetted from the 6-well plates into a single 24-well plate, for use as a reference sample for the designated time point. The results of this assay are described in Table 3 (below).

[2] = tested on: A. actinomycetemcomitans; assay: Minimum Inhibitory Concentration (MIC), two-fold dilutions in trypticase soy broth; conditions: Aggregatibacter actinomycetemcomitans, 18-24 hours of incubation
Experimental: (§1) Minimum Inhibitory Concentration (MIC) values are determined generally according to the following method: A series of two-fold dilutions in trypticase soy broth (Catalog No. 211768; Becton Dickinson, Franklin Lakes N.J.) are prepared in a 96 well plate and a constant amount of bacteria is then added to each well. After 18-24 hours of incubation, bacterial growth is measured with a Spectrophotometric Micro-plate Reader (Powerwave 5×, BioTEK, Winooski Vt.) and the MIC values are determined.
(§2) Table 4 (below) describes the antibacterial efficacy of isopropyl magnolol against various oral pathogens.

[3] = tested on: Actinomyces viscosus; assay: as above; conditions: 18-24 hours of incubation
Experimental: as §1, §2

[4] = tested on: Fusobcaterium nucleatum; assay: as above
Experimental: as §1, §2

[5] = tested on: Streptoccus mutans; assay: as above
Experimental: as §1, §2

[6] = tested on: Streptococcus sanguis; assay: as above; conditions: 18-24 hours of incubation
Experimental: as §1, §2

CCCCc1ccc(O)c(-c2cc(CCCC)ccc2O)c1 [Butyl magnolol]
PGE2 reduction (%) [1]: 29.98%

CC(C)c1ccc(O)c(-c2cc(C(C)C)ccc2O)c1 [Isopropyl magnolol, 5,5′-diisopropyl-2,2′-dihydroxy biphenol]
PGE2 reduction (%) [1]: 90.88%
MIC [2]: 3.9 mg/L (≈ 14.4 µM)
MIC [3]: 3.9 mg/L (≈ 14.4 µM)
MIC [4]: 0.97 mg/L (≈ 3.59 µM)
MIC [5]: 3.9 mg/L (≈ 14.4 µM)
MIC [6]: 1.95 mg/L (≈ 7.21 µM)

C=CCc1ccc(O)c(-c2cc(CC=C)ccc2O)c1 [Magnolol, 5,5′-Diallyl-biphenyl-2,2′-diol]
PGE2 reduction (%) [1]: 88.23%
MIC [2]: 15.6 mg/L (≈ 58.6 µM)
MIC [3]: 15.6 mg/L (≈ 58.6 µM)
MIC [4]: 7.8 mg/L (≈ 29.3 µM)
MIC [5]: 15.6 mg/L (≈ 58.6 µM)
MIC [6]: 15.6 mg/L (≈ 58.6 µM)
